# Data taken from US8729077B2, “Anti-viral compounds, compositions, and methods of use” (GlaxoSmithKline LLC, priority 2008, dated 2014).
# Columns and labels:
# [1] = test system: HCV genotype 1a subgenomic replicon; experiment: HCV replicon assay, genotype 1a (luciferase); assay type: cell-based; details: Hepatitis C virus; genotype 1a replicon stable cell line; luciferase activity measured 48 hours later; 10 point dose response; read-out: 1A pEC50 (converted)
# Experimental: (§1) Protocol for Testing and Data Analysis of Compounds in the HCV Replicon Assay
# (§2) Compounds were assayed for activity against HCV using the genotype 1a and 1b subgenomic replicon model systems. Stable cell lines bearing the genotype 1a and 1b replicons were used for screening of compounds. Both replicons are bicistronic and contain the firefly luciferase gene. The ET cell line is stably transfected with RNA transcripts harboring a I389luc-ubi-neo/NS3-3′/ET replicon with firefly luciferase-ubiquitin-neomycin phosphotransferase fusion protein and EMCV-IRES driven NS3-5B polyprotein containing the cell culture adaptive mutations (E1202G; T1280I; K1846T) (Krieger at al, 2001 and unpublished). The genotype 1a replicon is a stable cell line licensed from Apath LLC, modified to contain the firefly luciferase gene. The cells were grown in DMEM, supplemented with 10% fetal calf serum, 2 mM Glutamine, Penicillin (100 IU/mL)/Streptomycin (100 μg/mL), 1× nonessential amino acids, and 250-500 μg/mL G418 (“Geneticin”). They were all available through Life Technologies (Bethesda, Md.). The cells were plated at 0.5×10^4 cells/well in 384 well plates containing compounds. The final concentration of compounds ranged between 0.03 pM to […] and the final DMSO concentration of 0.5-1%.
# (§3) Luciferase activity was measured 48 hours later by adding a Steady glo (Promega, Madison, Wis.). Percent inhibition of replication data was plotted relative to no compound control. Under the same condition, cytotoxicity of the compounds was determined using cell titer glo (Promega, Madison, Wis.). EC50s were determined from a 10 point dose response curve using 3-4-fold serial dilution for each compound, which spans a concentration range >1000 fold. BioAssay determines the level of inhibition for each compound by normalizing cross-talk corrected plate values against the negative (low or background, cells with no compound present) and positive (high DMSO, no cells) controls to determine Percent Inhibition:
# (§4) These normalized values are exported to EC50 where they are plotted against the molar compound concentrations using the standard four parameter logistic equation:
# (§5) A=minimum y D=slope factor
# (§6) B=maximum y x=log10 compound concentration [M]
# [2] = test system: HCV genotype 1b subgenomic replicon; experiment: HCV replicon assay, genotype 1b (luciferase, ET cell line); assay type: cell-based; details: Hepatitis C virus; genotype 1b replicon (ET cell line); luciferase activity measured 48 hours later; 10 point dose response; read-out: 1B pEC50 (converted)
# Experimental: as §1, §2, §3, §4, §5, §6
SMILES,EC50 [1],EC50 [2]
CN(C)[C@@H](C(=O)N1CCC[C@H]1c1nc(-c2ccc(-c3ccc(-c4c[nH]c([C@@H]5COC6(CCOCC6)N5C(=O)OCc5ccccc5)n4)cc3)cc2)c[nH]1)c1ccccc1 [example 1],1.58 nM,0.00347 nM
"CC=C1C[C@@H](c2ncc(-c3ccc(-c4ccc(-c5cnc([C@@H]6CCCN6C(=O)C(NC(=O)OC)C(C)C)[nH]5)cc4)cc3)[nH]2)N(C(=O)C(NC(=O)OC)C(C)C)C1 (stereo partly drawn) [example 12, (1-{(S)-2-[5-(4′-{2-[(S)-4-Ethylidene-1-(2-methoxycarbonylamino-3-methyl-butyryl)-pyrrolidin-2-yl]-3H-imidazol-4-yl}-biphenyl-4-yl)-1H-imidazol-2-yl]-pyrrolidine-1-carbonyl}-2-methyl-propyl)-carbamic acid methyl ester]",0.0158 nM,0.00437 nM
"CCC1=C[C@@H](c2ncc(-c3ccc(-c4ccc(-c5cnc([C@@H]6CCCN6C(=O)C(NC(=O)OC)C(C)C)[nH]5)cc4)cc3)[nH]2)N(C(=O)[C@H](NC(=O)OC)C(C)C)C1 (stereo partly drawn) [example 10, (1-{(S)-2-[5-(4′-{2-[(S)-4-Ethyl-1-((R)-2-methoxycarbonylamino-3-methyl-butyryl)-2,5-dihydro-1H-pyrrol-2-yl]-3H-imidazol-4-yl}-biphenyl-4-yl)-1H-imidazol-2-yl]-pyrrolidine-1-carbonyl]-2-methyl-propyl)-carbamic acid methyl ester]",0.0316 nM,0.00603 nM
"COC(=O)N[C@H](C(=O)N1CC(C2CC2)=C[C@H]1c1ncc(-c2ccc(-c3ccc(-c4cnc([C@@H]5CCCN5C(=O)[C@@H](NC(=O)OC)C(C)C)[nH]4)cc3)cc2)[nH]1)C(C)C [example 11, methyl[(1S)-1-({(2S)-2-[4-(4′-{2-[(2S)-4-cyclopropyl-1-((2S)-3-methyl-2-{[(methyloxy)carbonyl]amino}butanoyl)-2,5-dihydro-1H-pyrrol-2-yl]-1H-imidazol-4-yl}-4-biphenylyl)-1H-imidazol-2-yl]-1-pyrrolidinyl}carbonyl)-2-methylpropyl]carbamate]",0.0126 nM,0.00468 nM
"COC(=O)N[C@H](C(=O)N1CCC[C@H]1c1ncc(-c2ccc(-c3ccc(-c4cnc([C@@H]5C=C(C)CN5C(=O)[C@H](NC(=O)OC)C(C)C)[nH]4)cc3)cc2)[nH]1)C(C)C [example 9, (1-{(S)-2-[5-(4′-{2-[(S)-1-((R)-2-Methoxycarbonylamino-3-methyl-butyryl)-4-methyl-2,5-dihydro-1H-pyrrol-2-yl]-3H-imidazol-4-yl}-biphenyl-4-yl)-1H-imidazol-2-yl]-pyrrolidine-1-carbonyl}-2-methyl-propyl)-carbamic acid methyl ester]",0.0158 nM,0.00776 nM
